Consider 15 compounds from article PMC7397336, “5-(4H)-Oxazolones and Their Benzamides as Potential Bioactive Small Molecules” (Molecules, 2020).

One may read the melting point as the temperature, or range, at which the solid turns liquid. For orientation: inhibition means the change of the read-out against control, counted positive when it falls. By IC50 is commonly meant the concentration that inhibits the measured activity by half.

A short description of data set [1]: Inhibition of linoleic acid lipid peroxidation (AAPH). From the text: Azo compounds, like AAPH, generating free radicals through spontaneous thermal decomposition are useful for in vitro studies of free radical production. Production of conjugated diene hydroperoxide by oxidation of sodium linoleate in an aqueous solution is monitored at 234 nm. This assay can be used to follow oxidative changes and to understand the contribution of each tested compound. […] It seems that the presence of moiety Ar (Scheme 1) is mainly correlated with the antioxidant result. The nature of the heteroatom O/S in Ar substituent in the 5-membered oxazolone ring (compounds 2c and 2e) influences the biological response. The replacement of the thienyl group in 2c by a furyl group (2e) leads to a 31% decrease of the antioxidant ability.
Each in vitro experiment was performed at least in triplicate and the standard deviation of absorbance was less than 10% of the mean. For the in vitro assays, a stock solution (1% DMSO in the appropriate buffer with the tested compound diluted under sonification) was prepared from which several dilutions were made with the appropriate buffer.
The AAPH-induced oxidation of linoleic acid measures the ability of an antioxidant to prevent oxidation of linoleic acid sodium salt induced by alkylperoxyl radicals, generated from the water soluble azo compound 2,2′-azobis(2-amidinopropane) dihydrochloride (AAPH). The assay was performed according to our previous publications. Trolox was used as reference compound.

Another data set deals with T1, soybean lipoxygenase (Glycine max, UniProt P08170).
T1 construct: purchased Sigma Chemical, Co. (St. Louis, MO, USA)
T1 sequence (P08170 1-839): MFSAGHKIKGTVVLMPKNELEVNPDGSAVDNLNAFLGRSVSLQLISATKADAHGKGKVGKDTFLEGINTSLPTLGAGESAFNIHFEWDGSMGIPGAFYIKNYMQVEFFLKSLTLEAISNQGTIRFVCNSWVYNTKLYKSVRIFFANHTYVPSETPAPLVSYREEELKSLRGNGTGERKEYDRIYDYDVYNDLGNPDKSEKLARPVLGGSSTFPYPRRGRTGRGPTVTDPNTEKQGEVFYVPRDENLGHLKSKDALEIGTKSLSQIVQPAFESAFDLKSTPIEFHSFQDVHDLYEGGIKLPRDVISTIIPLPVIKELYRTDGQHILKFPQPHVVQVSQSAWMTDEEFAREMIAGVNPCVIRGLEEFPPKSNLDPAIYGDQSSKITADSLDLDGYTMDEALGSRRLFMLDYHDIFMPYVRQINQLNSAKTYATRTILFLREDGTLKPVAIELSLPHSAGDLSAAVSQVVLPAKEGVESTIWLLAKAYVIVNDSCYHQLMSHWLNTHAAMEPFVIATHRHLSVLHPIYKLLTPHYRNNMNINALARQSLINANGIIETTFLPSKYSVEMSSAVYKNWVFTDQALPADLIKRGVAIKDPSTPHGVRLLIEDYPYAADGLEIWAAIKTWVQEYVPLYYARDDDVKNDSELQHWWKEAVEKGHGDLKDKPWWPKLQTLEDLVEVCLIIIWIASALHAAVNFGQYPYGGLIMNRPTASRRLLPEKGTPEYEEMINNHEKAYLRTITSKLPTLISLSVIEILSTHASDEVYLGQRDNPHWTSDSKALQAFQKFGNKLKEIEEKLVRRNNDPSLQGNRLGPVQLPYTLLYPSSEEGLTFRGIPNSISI
In words: Soybean lipoxygenase inhibition study. Particulars: for inhibition at 100 µM: read-out: LOX % inhibition 100 μM; for IC50: soybean lipoxygenase, sodium linoleate 0.1 mM, read-out: LOX IC50. Type of data set: biochemical. The protocol:
For the in vitro assays, a stock solution (1% DMSO in the appropriate buffer with the tested compound diluted under sonification) was prepared from which several dilutions were made with the appropriate buffer. DMSO solution of the tested compound (stock solutions 10 mM) was incubated with sodium linoleate (0.1 mM) and 0.2 mL of soybean lipoxygenase solution (1/9 × 10^−4 w/v in saline) at room temperature. The test follows our previous published methods. […] Several concentrations were used to determine the IC50.

A further data set concerns the target mushroom tyrosinase (Agaricus bisporus, UniProt C7FF04). Kind of data set: Tyrosinase inhibition assay. Type of data set: biochemical. The note with it: L-Dopa substrate; for inhibition at 100 µM: read-out: ΤyrI% 100 μM (inhibition of mushroom tyrosinase). The protocol: For the in vitro assays, a stock solution (1% DMSO in the appropriate buffer with the tested compound diluted under sonification) was prepared from which several dilutions were made with the appropriate buffer.

Data set [2] deals with carrageenin-induced rat paw edema. Kind of data set: Inhibition of the carrageenin-induced rat paw edema. Type of data set: in vivo, Fisher 344 rats. The note with it: 0.0057 mmol/kg body weight i.p., 3.5 h after carrageenin. The protocol: For the estimation of anti-inflammatory potential of the tested compounds the rat carrageenin induced paw edema assay was employed as a model for acute inflammation. Indomethacin, as a reference drug, and our compounds were administered intraperitoneally in order to ensure systemic response via fast bioavailability, while carrageenin’s intradermal administration, as inflammatory agent, aimed to local response. The development of the edema induced by carrageenin has been described as a biphasic event. The early phase of the inflammatory response, lasting 0.5–1.5 h, is chiefly mediated by histamine and serotonin release inducing hyperalgesia, swelling and redness, while the later phase, lasting 3–6 h, is sustained presumably by prostaglandin release. This model reliably predicts the anti-inflammatory efficacy of the NSAIDs during the second phase, since non-steroidal anti-inflammatory drugs (NSAIDs) present weak activity in the first phase. Therefore, using this protocol we could evaluate our compounds as potential anti-inflammatory agents, as a result of inhibition of prostaglandin amplification.
The animals (Fisher 344 rats), which have been bred in our laboratory, were housed under standard conditions and received a diet of commercial food pellets and water ad libitum during the maintenance but they were entirely fasted during the experiment period. Both sexes were used while females pregnant were excluded. Each group was composed of 6–15 animals. Our studies were in accordance with recognized guidelines on animal experimentation (guidelines for the care and use of laboratory animals published by the Greek Government 160/1991, based on EU regulations 86/609). […]
Edema was induced in the right hind paw of the rats by the intradermal injection of 0.1 mL 2% carrageenin in water we followed our previous published method. […] The change in paw weight was compared with that in control animals (treated with water) and expressed as a percent inhibition of the edema CPE % values. […]
Background: Carrageenan injected into the paw causes an acute inflammation.

Structures are written as SMILES. Marks after values point to notes of the source that are not given here.

Sequence of mushroom tyrosinase (G1K3P4 entry or part of it): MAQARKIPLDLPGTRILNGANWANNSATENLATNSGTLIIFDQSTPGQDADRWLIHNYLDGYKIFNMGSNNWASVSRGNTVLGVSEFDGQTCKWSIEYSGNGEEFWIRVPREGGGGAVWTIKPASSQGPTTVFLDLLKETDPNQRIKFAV
Sequence of mushroom tyrosinase (C7FF04 1-392): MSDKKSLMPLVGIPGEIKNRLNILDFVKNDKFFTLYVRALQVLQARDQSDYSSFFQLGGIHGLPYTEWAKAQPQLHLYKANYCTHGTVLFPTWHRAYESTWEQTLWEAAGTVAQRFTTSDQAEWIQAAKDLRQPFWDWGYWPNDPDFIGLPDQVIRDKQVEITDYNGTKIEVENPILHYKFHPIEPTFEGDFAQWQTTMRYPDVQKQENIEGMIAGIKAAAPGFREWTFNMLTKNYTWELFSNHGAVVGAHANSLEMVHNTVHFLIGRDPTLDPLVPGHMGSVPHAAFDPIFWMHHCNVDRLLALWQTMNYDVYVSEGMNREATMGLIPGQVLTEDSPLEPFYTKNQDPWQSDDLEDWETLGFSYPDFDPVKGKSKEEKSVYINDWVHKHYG

As for `O=C1OC(c2ccccc2)=N/C1=C\c1ccccc1` [Compound 2a, (Z)-4-Benzylidene-2-phenyloxazol-5(4H)-one], in data set [1], the “AAPH% 100 µM (anti-lipid peroxidation)” value is recorded as 95%. Besides, on soybean lipoxygenase (100 µM), the “LOX % inhibition 100 μM” value is listed as “no”. The “ΤyrI% 100 μM (inhibition of mushroom tyrosinase)” value at mushroom tyrosinase is “no”.

Compound `O=C1OC(c2ccccc2)=N/C1=C\c1ccc(OCc2ccc(Br)cc2)cc1` [Compound 2b, (Z)-4-(4-((4-Bromobenzyl)oxy)benzylidene)-2-phenyloxazol-5(4H)-one] gave a melting point of 199 to 200 °C. In addition, in data set [1], the “AAPH% 100 µM (anti-lipid peroxidation)” value was 79%. The “LOX % inhibition 100 μM” value at soybean lipoxygenase (100 µM) is “no”. In addition, the “ΤyrI% 100 μM (inhibition of mushroom tyrosinase)” value on mushroom tyrosinase is “no”.

For the compound `O=C1OC(c2ccccc2)=N/C1=C\c1cccs1` [Compound 2c, (Z)-2-Phenyl-4-(thiophen-2-ylmethylene)oxazol-5(4H)-one], the “AAPH% 100 µM (anti-lipid peroxidation)” value in data set [1] came out at 91%. The “LOX % inhibition 100 μM” value at soybean lipoxygenase (100 µM) is on record as “no”. For the same compound, the inhibition at 100 µM at mushroom tyrosinase turned out to be 16%.

As for `O=C1OC(c2ccccc2)=N/C1=C\c1cccc2ccccc12` [Compound 2d, (Z)-4-(Naphthalen-1-ylmethylene)-2-phenyloxazol-5(4H)-one], the melting point is 169 to 171 °C. In data set [1], the “AAPH% 100 µM (anti-lipid peroxidation)” value is recorded as 81%. On soybean lipoxygenase (100 μM), the “LOX % inhibition 100 μM” value is reported as 49%. Besides, the inhibition at 100 µM on soybean lipoxygenase (100 µM) was under 50%. Besides, the inhibition at 100 µM on mushroom tyrosinase was 5%.

In the case of `O=C1OC(c2ccccc2)=N/C1=C\c1ccco1` [Compound 2e, (Z)-4-(Furan-2-ylmethylene)-2-phenyloxazol-5(4H)-one], the “AAPH% 100 µM (anti-lipid peroxidation)” value in data set [1] is 60%. The inhibition at 100 µM on mushroom tyrosinase was 3%.

In the case of `O=C1OC(c2ccccc2)=N/C1=C\c1ccc(Oc2ccccc2)cc1` [Compound 2f, (Z)-4-(4-Phenoxybenzylidene)-2-phenyloxazol-5(4H)-one], the melting point came to 169 °C. In addition, the “AAPH% 100 µM (anti-lipid peroxidation)” value in data set [1] was “no”. In addition, the “LOX % inhibition 100 μM” value at soybean lipoxygenase (100 µM) is recorded as “no”.

`O=C(N/C(=C\c1cccs1)C(=O)N1CCOCC1)c1ccccc1` [Compound 3c, (Z)-N-(3-morpholino-3-oxo-1-(thiophen-2-yl)prop-1-en-2-yl)benzamide] showed a melting point of 184 to 186 °C. Moreover, the “AAPH% 100 µM (anti-lipid peroxidation)” value in data set [1] is on record as 93%. In addition, on soybean lipoxygenase (100 μM), the “LOX % inhibition 100 μM” value stood at 39%. The inhibition at 100 µM on soybean lipoxygenase (100 µM) was under 50%. The inhibition at 100 µM at mushroom tyrosinase came to 7%.

In turn, `O=C(N/C(=C\c1cccc2ccccc12)C(=O)N1CCOCC1)c1ccccc1` [Compound 3d, (Z)-N-(3-morpholino-1-(naphthalen-1-yl)-3-oxoprop-1-en-2-yl)benzamide] showed a melting point of 135 to 137 °C. In data set [1], the “AAPH% 100 µM (anti-lipid peroxidation)” value worked out at 91%. Further, the “LOX % inhibition 100 μM” value at soybean lipoxygenase (100 μM) turned out to be 37%. At soybean lipoxygenase (100 µM), the inhibition at 100 µM is under 50%.

In turn, `O=C(N/C(=C\c1ccc(OCc2ccc(Br)cc2)cc1)C(=O)N1CCN(C(=O)/C(=C/c2ccc(OCc3ccc(Br)cc3)cc2)NC(=O)c2ccccc2)CC1)c1ccccc1` [Compound 4b, N,N′-((1Z,1′Z)-piperazine-1,4-diylbis(1-(4-((4-bromobenzyl)oxy)phenyl)-3-oxoprop-1-ene-3,2-diyl))-bis-benzamide] gave a melting point of 285 to 286 °C. Further, the “AAPH% 100 µM (anti-lipid peroxidation)” value in data set [1] is on record as 99%. The IC50 at soybean lipoxygenase was 85 µM. Besides, the inhibition at 100 µM on mushroom tyrosinase was 12%.

As for `O=C(N/C(=C\c1cccc2ccccc12)C(=O)N1CCN(C(=O)/C(=C/c2cccc3ccccc23)NC(=O)c2ccccc2)CC1)c1ccccc1` [Compound 4d, N,N′-((1Z,1′Z)-piperazine-1,4-diylbis(1-(naphthalen-1-yl)-3-oxoprop-1-ene-3,2-diyl))bisbenzamide], the melting point fell in the range of 282 to 284 °C. For the same compound, the “AAPH% 100 µM (anti-lipid peroxidation)” value in data set [1] turned out to be 90%. Moreover, the half-inhibitory concentration (IC50) at soybean lipoxygenase stood at 65 µM. In addition, on mushroom tyrosinase, the inhibition at 100 µM is 28%.

`O=C(N/C(=C\c1ccco1)C(=O)N1CCN(C(=O)/C(=C/c2ccco2)NC(=O)c2ccccc2)CC1)c1ccccc1` [Compound 4e, N,N′-((1Z,1′Z)-piperazine-1,4-diylbis(1-(furan-2-yl)-3-oxoprop-1-ene-3,2-diyl))bisbenzamide] registered a melting point of 293 to 295 °C. Besides, the “AAPH% 100 µM (anti-lipid peroxidation)” value in data set [1] is on record as 83%. For the same compound, the IC50 at soybean lipoxygenase was found to be 88 µM. Besides, the inhibition at 100 µM at mushroom tyrosinase turned out to be 17%.

Regarding `O=C(N/C(=C\c1cccs1)C(=O)N1CCCCC1)c1ccccc1` [Compound 5c, (Z)-N-(3-Oxo-3-(piperidin-1-yl)-1-(thiophen-2-yl)prop-1-en-2-yl)benzamide], the melting point is 181 to 182 °C. In addition, in data set [1], the “AAPH% 100 µM (anti-lipid peroxidation)” value was 72%. Moreover, the “LOX % inhibition 100 μM” value at soybean lipoxygenase (100 μM) was 41%. For the same compound, the inhibition at 100 µM on soybean lipoxygenase (100 µM) was under 50%. For the same compound, the inhibition at 100 µM on mushroom tyrosinase was 13%.

Consider `CCOC(=O)/C(=C/c1cccs1)NC(=O)c1ccccc1` [Compound 6c, (Z)-Ethyl 2-benzamido-3-(thiophen-2-yl)acrylate], for which the melting point lay within 156 to 159 °C. Further, the “AAPH% 100 µM (anti-lipid peroxidation)” value in data set [1] worked out at 59%. Moreover, the “LOX % inhibition 100 μM” value at soybean lipoxygenase (100 μM) is reported as 36%. In addition, the inhibition at 100 µM on soybean lipoxygenase (100 µM) was under 50%. Besides, the inhibition at 100 µM on mushroom tyrosinase is 5%.

On to `COc1ccc2c(c1)c(CC(=O)O)c(C)n2C(=O)c1ccc(Cl)cc1` [Indomethacin, reference compound], for which the “CPE (%) inhibition of carrageenin-induced rat paw edema” value in data set [2] is on record as 58 ** %.

In the case of `Cc1c(C)c2c(c(C)c1O)CCC(C)(C(=O)O)O2` (centres unmarked) [Trolox, reference compound], the “AAPH% 100 µM (anti-lipid peroxidation)” value in data set [1] amounted to 93%.
